Data taken from BigSolDB 2.1.

CC1(C)O[C@H]2CC(=O)OC[C@]23[C@H]2CC[C@@]4(C)[C@H](c5ccoc5)OC(=O)[C@H]5O[C@]54[C@]2(C)C(=O)C[C@@H]13
solubility (mole fraction) (in acetone, 283.2 K): 0.00409 | solubility (mole fraction) (in acetone, 288.2 K): 0.00454 | solubility (mole fraction) (in acetone, 293.2 K): 0.00465 | solubility (mole fraction) (in acetone, 298.2 K): 0.00471 | solubility (mole fraction) (in acetone, 303.2 K): 0.00474 | solubility (mole fraction) (in acetone, 308.2 K): 0.00497 | solubility (mole fraction) (in acetone, 313.2 K): 0.00516 | solubility (mole fraction) (in acetone, 318.2 K): 0.0055 | solubility (mole fraction) (in methanol, 283.2 K): 7.08e-05 | solubility (mole fraction) (in methanol, 288.2 K): 7.81e-05 | solubility (mole fraction) (in methanol, 293.2 K): 9.2e-05 | solubility (mole fraction) (in methanol, 298.2 K): 0.000101 | solubility (mole fraction) (in methanol, 303.2 K): 0.00012 | solubility (mole fraction) (in methanol, 308.2 K): 0.000137 | solubility (mole fraction) (in methanol, 313.2 K): 0.000162 | solubility (mole fraction) (in methanol, 318.2 K): 0.000192 | solubility (mole fraction) (in water, 283.2 K): 1.17e-07 | solubility (mole fraction) (in water, 288.2 K): 2.37e-07 | solubility (mole fraction) (in water, 293.2 K): 4.77e-07 | solubility (mole fraction) (in water, 298.2 K): 5.97e-07 | solubility (mole fraction) (in water, 303.2 K): 8.3e-07 | solubility (mole fraction) (in water, 308.2 K): 1.04e-06 | solubility (mole fraction) (in water, 313.2 K): 1.17e-06 | solubility (mole fraction) (in water, 318.2 K): 1.49e-06
